Results as given in article PMC11726677, “Eradication of Therapy-Resistant Cancer Stem Cells by Novel Telmisartan Derivatives” (Journal of Medicinal Chemistry, 2024).

Experiments:
[1] = Caco2 permeability (bidirectional); assay type: in vitro ADME; conditions: human, Caco-2; Papp B–A/Papp A–B
Protocol: The medium was changed regularly and on day 20 the permeability study was performed. The monolayers were prepared by rinsing the apical and basolateral surfaces with Hanks Balanced Salt Solution (HBSS) twice at the desired pH and by incubating for 40 min to stabilize the physiological parameters. […] The compounds were diluted with buffer to a concentration of 10 μM (final DMSO concentration ≤1%) and added to the apical or basolateral sides of the cell monolayer. Compound permeability was assessed in duplicates and molecules of known permeability characteristics were used as controls (antipyrine, atenolol, talinolol, and estrone 3-sulfate). To calculate Papp, compound appearance was measured using LC–MS/MS. The efflux ratio was determined for bidirectional assays.

STAT5 = experiment: Jess Simple Western immunoassay of STAT5/pSTAT5 in IGROV-1 SP cells; assay type: cell-based, human; conditions: IGROV-1 SP, 10 μM, 72 h
Protocol: The impact of STAT5 activation on the mode of action was investigated in selected solid tumor cell lines as well.
Protein extracts were prepared as previously described.[44] Protein expression was determined using the capillary-based Jess Simple Western detection system (ProteinSimple, BioTechne) according to the manufacturer’s instructions at default settings. […] Horseradish peroxidase (HRP)-conjugated secondary antirabbit antibody, which was included in the Jess Detection Module kit, was used. Data analysis was conducted using Compass for Simple Western 4.0 software (ProteinSimple, BioTechne).

IGROV-1 SP cells = experiment: Chemosensitizing to paclitaxel: metabolic activity of IGROV-1 SP cells (MTT); assay type: cell-based, human; conditions: compound 10 μM + PTX 10 nM, 72 h
Protocol: The chemosensitizing efficacy was investigated in the ovarian and prostate cancer cell lines using the above-described metabolic activity assay. Paclitaxel (PTX) served as a reference (CTR) in A2780 V SP and IGROV-1 SP cells and docetaxel (DTX) in PC3-DR and D145-DR cells.
COS-7 (2 × 10^3 cells per well), IGROV-1 SP (2.5 × 10^3 cells per well), A2780 V SP (1.5 × 10^3 cells per well), PC3-DR (4 × 10^3 cells per well), and DU145-DR (3 × 10^3 cells per well) cells were seeded in 96-well plates in triplicates and after 24 h, the compounds were added at the respective concentrations. K562-R and K562 cells (2 × 10^4 cells per well), were treated with the compounds 2 h after seeding. […] A modified MTT colorimetric assay (EZ4U kit, Biomedica) was used to determine the metabolic activity of the tested cells, according to the manufacturer’s instructions. Absorbance was measured and the optical density of the respective FCS-containing medium and of the substrate was subtracted to exclude nonspecific staining. Metabolic activity in the absence of the compounds (CTR, DMSO) was set to 100% as reference.

## CCCc1nc2c(C)cc(-c3nc4ccccc4n3C)cc2n1Cc1ccc(-c2ccccc2C(=O)OC)cc1 [7b, Methyl 4′-((1,7′-dimethyl-2′-propyl-1H,3′H-[2,5′-bibenzo[d]imidazole]-3′-yl)methyl)-[1,1′-biphenyl]-2-carboxylate]
[1]
  efflux ratio at 10 µM: 1.24
STAT5
  phosphorylation status of STAT5: practically did not suppress pSTAT5
IGROV-1 SP cells
  viability / antimetabolic effect in combination with PTX: inactive
